# Experimental data reported in patent publication US20230174485A1, “LIPOXYGENASE INHIBITORS” (SRI International, priority 2020, published 2023).
# Where “and” joins values, the source holds several entries; their conditions need not be identical. Identical values can stand only once. Like-named read-outs stand apart in the source and are kept apart here.
# Tests used:
# Format in all cases: biochemical
# recombinant 5-LOX = target: T1, recombinant 5-LOX (Homo sapiens, UniProt P09917); assay: 5-LOX fluorescent assay; conditions: several values in one cell = repeat determinations; read-out: IC50 (μM) values for in vitro lipoxygenase inhibition, 5-LOX
# T1 sequence (P09917 1-674): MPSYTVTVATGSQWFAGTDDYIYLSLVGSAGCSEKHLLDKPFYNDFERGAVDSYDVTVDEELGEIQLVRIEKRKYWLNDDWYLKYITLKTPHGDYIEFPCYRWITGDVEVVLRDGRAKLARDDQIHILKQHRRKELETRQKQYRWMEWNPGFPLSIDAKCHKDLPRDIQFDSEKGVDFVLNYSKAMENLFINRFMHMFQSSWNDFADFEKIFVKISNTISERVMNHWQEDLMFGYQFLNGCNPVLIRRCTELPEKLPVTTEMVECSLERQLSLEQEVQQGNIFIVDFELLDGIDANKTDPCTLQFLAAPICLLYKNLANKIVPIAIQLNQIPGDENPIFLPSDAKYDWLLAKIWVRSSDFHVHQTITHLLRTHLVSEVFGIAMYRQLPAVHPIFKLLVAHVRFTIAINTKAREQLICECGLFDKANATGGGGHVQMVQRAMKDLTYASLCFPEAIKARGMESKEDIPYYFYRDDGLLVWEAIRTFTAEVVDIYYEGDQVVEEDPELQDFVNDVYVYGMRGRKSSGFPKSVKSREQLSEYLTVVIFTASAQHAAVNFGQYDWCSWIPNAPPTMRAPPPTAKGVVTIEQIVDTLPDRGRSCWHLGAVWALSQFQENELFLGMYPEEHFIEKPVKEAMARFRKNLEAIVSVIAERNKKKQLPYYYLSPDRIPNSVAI
# Method in brief: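 Lysate containing recombinant 5-LOX was pre-incubated 15 min with compounds in 50 mM Tris pH 7.5, 0.1 mM EDTA, 0.3 mM CaCl2. The reaction was started with 20 μM arachidonic acid, 100 μM ATP and 1 μM DHR123.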
# [1] = target: T2, recombinant 12-LOX enzyme (Homo sapiens, UniProt P18054); assay: 12-LOX fluorescent assay; conditions: several values in one cell = repeat determinations; read-out: IC50 (μM) values for in vitro lipoxygenase inhibition, 12-LOX
# T2 sequence (P18054 1-663): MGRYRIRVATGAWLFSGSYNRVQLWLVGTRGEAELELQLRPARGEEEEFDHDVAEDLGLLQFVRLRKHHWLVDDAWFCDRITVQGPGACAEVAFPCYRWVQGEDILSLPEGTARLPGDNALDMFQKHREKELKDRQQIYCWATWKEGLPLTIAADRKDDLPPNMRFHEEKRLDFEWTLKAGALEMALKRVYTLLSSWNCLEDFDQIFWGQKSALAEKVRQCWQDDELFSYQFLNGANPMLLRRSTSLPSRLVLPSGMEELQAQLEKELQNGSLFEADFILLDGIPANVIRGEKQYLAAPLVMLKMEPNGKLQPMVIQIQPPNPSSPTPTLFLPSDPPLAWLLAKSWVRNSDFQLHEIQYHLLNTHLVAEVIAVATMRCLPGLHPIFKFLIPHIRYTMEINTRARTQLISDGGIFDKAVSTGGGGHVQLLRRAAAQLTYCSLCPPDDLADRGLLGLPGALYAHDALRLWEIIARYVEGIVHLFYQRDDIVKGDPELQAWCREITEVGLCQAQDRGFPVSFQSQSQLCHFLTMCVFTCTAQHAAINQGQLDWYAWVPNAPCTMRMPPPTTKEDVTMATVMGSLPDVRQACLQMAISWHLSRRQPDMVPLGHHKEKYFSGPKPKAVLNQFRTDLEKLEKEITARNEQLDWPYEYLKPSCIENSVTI
# Method in brief: (§1)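 Compounds pre-incubated 15 min with 100 nM 12-LOX or 50 nM 15-LOX in 50 mM Tris pH 7.5, 0.05% Tween-20; reaction started with 20 μM AA/LA plus 1 μM DHR123.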
# [2] = target: T3, recombinant 15-LOX enzyme (Homo sapiens, UniProt P16050); assay: 15-LOX fluorescent assay; conditions: several values in one cell = repeat determinations
# T3 sequence (P16050 1-662): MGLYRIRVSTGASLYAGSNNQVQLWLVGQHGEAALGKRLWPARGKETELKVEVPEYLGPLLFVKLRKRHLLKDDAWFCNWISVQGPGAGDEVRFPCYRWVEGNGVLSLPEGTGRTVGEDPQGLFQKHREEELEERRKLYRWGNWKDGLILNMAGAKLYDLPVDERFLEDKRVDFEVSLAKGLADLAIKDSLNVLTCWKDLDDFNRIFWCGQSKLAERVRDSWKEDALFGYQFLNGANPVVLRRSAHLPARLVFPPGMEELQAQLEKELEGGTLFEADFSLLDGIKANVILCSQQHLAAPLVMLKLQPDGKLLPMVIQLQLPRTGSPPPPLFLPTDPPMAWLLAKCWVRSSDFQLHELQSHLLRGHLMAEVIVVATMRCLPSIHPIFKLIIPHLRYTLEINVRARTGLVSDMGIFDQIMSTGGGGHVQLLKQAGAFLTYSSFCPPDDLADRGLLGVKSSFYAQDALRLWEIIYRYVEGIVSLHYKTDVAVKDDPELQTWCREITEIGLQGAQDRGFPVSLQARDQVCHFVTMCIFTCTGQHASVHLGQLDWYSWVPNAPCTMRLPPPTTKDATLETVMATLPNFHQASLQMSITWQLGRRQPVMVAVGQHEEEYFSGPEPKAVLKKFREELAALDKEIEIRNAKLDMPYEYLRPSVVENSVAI
# Method in brief: as §1
# [3] = read-out: IC50 (μM) values for in vitro lipoxygenase inhibition, 15-LOX
# [4] = IC50 (μM) values for in vitro lipoxygenase inhibition, 15-LOX
IC50 (recombinant 5-LOX),IC50 [1],"IC50 [2, 3]","IC50 [2, 4]",Structure (SMILES)
0.62 µM,0.99 µM,2.19 µM,–,"c1ccc(N(CCCn2cncn2)c2ccc3c(c2)[nH]c2ccccc23)cc1 [SS20308-0060-01, N-(3-(1H-1,2,4-triazol-1-yl)propyl)-N-phenyl-9H-carbazol-2-amine]"
0.08 µM,0.1 µM,0.05 µM,–,"CN(C)CC1(COc2c3[nH]c4ccc(F)cc4c3c(F)c3[nH]c4ccc(F)cc4c23)COC1 [SS20308-0185-01, N,N-dimethyl-1-(3-((2,8,12-trifluoro-5,11-dihydroindolo[3,2-b]carbazol-6-yloxy)methyl)oxetan-3-yl)methanamine]"
9.17 µM,6.32 µM,4.53 µM,–,CN(C)CCOc1cc2c3ncccc3[nH]c2c2c1[nH]c1cccnc12 [SS20308-0070-01]
0.02 µM,2.23 µM,0.06 µM,–,"CN(C)CCOc1cc2c3ccccc3[nH]c2c2[nH]c3ccccc3c12 [SS20308-0103-01, 2-(11,12-dihydroindolo[2,3-a]carbazol-5-yloxy)-N,N-dimethylethanamine]"
1.02 µM,0.87 µM,–,1.38 µM,"CN(C)CCOc1c2nc(-c3ccccc3)[nH]c2cc2[nH]c3ccccc3c12 [SS20308-0122-01, N,N-dimethyl-2-(2-phenyl-3,5-dihydroimidazo[4,5-b]carbazol-10-yloxy)ethanamine]"
0.22 µM,0.11 µM,1.12 µM,–,"c1ccc2c(c1)CCc1ccc(NCCn3cncn3)cc1N2 [SS20308-0224-01, N-(2-(1H-1,2,4-triazol-1-yl)ethyl)-10,11-dihydro-5H-dibenzo[b,f]azepin-3-amine]"
32.2 µM,22 µM,–,8.64 µM,"COc1ccc2c([nH]c3ccc(F)cc32)c1OCCN(C)C [SS20308-0007-01, 2-(6-fluoro-2-methoxy-9H-carbazol-1-yloxy)-N,N-dimethylethanamine]"
1.06 µM,0.35 µM,0.44 µM,–,"Fc1ccc2[nH]c3c(NCCn4cncn4)c(-c4ccccc4)ccc3c2c1 [SS20308-0154-01, N-(2-(1H-1,2,4-triazol-1-yl)ethyl)-6-fluoro-2-phenyl-9H-carbazol-1-amine]"
2.66 µM,2.32 µM,2.15 µM,–,"CN(C)CCOc1c(-c2ccccc2[N+](=O)[O-])ccc2c1[nH]c1ccccc12 [SS20308-0077-01, N,N-dimethyl-2-(2-(2-nitrophenyl)-9H-carbazol-1-yloxy)ethanamine]"
4.38 µM,2.17 µM,1.53 µM,–,"CN(C)CCCc1cc(-c2cccc3c2NCC3)cc2[nH]c3ccccc3c12 [SS20308-0170-01, 3-(2-(indolin-7-yl)-9H-carbazol-4-yl)-N,N-dimethylpropan-1-amine]"
0.2 µM,0.14 µM,0.58 µM,–,"c1ccc2c(c1)CCc1cc(C3CCOCC3)c(NCCn3cncn3)cc1N2 [SS20308-0305-01, N-(2-(1H-1,2,4-triazol-1-yl)ethyl)-2-(tetrahydro-2H-pyran-4-yl)-10,11-dihydro-5H-dibenzo[b,f]azepin-3-amine]"
0.2 µM,0.01 µM,0.18 µM,–,"Fc1ccc2[nH]c3cc4c(cc3c2c1)CCN4CCn1cncn1 [SS20308-0208-01, 1-(2-(1H-1,2,4-triazol-1-yl)ethyl)-6-fluoro-1,2,3,9-tetrahydropyrrolo[2,3-b]carbazole]"
1.85 µM,2.75 µM,1.59 µM,–,"CN(C)CCCn1c2c(c3ccccc31)CC(Nc1ccccc1)CC2 (stereo not drawn) [SS20308-0159-01, 9-(3-(dimethylamino)propyl)-N-phenyl-2,3,4,9-tetrahydro-1H-carbazol-3-amine]"
47 µM,4.07 µM,–,1.39 µM,c1ccc(-c2cc3c([nH]c4ccccc43)c(OCCn3cncn3)n2)cc1 [SS20308-0018-01]
0.36 µM and 0.82 µM,0.36 µM and 0.49 µM,–,1.13 µM and 1.93 µM,"CN(C)CCOc1c(NCc2ccccc2)ccc2c1[nH]c1ncccc12 [SS20308-0047-01, N-benzyl-8-(2-(dimethylamino)ethoxy)-9H-pyrido[2,3-b]indol-7-amine]"
5.63 µM,0.77 µM,–,1.76 µM,"CN(C)CCCc1c(O)ccc2c1[nH]c1ccc(F)cc12 [SS20308-0068-01, 1-(3-(dimethylamino)propyl)-6-fluoro-9H-carbazol-2-ol]"
0.04 µM and 0.01 µM,0.03 µM and 0.01 µM,0.05 µM and 0.02 µM,–,"Fc1ccc2[nH]c3cc(-c4ccccc4)c(NCC4(Cn5cncn5)COC4)cc3c2c1 [SS20308-0186-01, N-((3-((1H-1,2,4-triazol-1-yl)methyl)oxetan-3-yl)methyl)-6-fluoro-2-phenyl-9H-carbazol-3-amine]"
0.62 µM,0.87 µM,0.42 µM,–,"CN(C)CCOc1c(CNc2ccccc2)ccc2c1[nH]c1ccccc12 [SS20308-0086-01, N-((1-(2-(dimethylamino)ethoxy)-9H-carbazol-2-yl)methyl)aniline]"
0.06 µM and 0.12 µM,0.05 µM and 0.06 µM,0.02 µM and 0.16 µM,–,"CN(C)CCc1cc(Nc2cccnc2)cc2c1[nH]c1ccccc12 [SS20308-0291-01, 1-(2-(dimethylamino)ethyl)-N-(pyridin-3-yl)-9H-carbazol-3-amine]"
> 100 µM,> 100 µM,> 100 µM,–,"Cc1c2[nH]c3ccccc3c2c(CCCN(C)C)c2[nH]c3ccccc3c12 [SS20308-0100-01, N,N-dimethyl-3-(12-methyl-5,11-dihydroindolo[3,2-b]carbazol-6-yl)propan-1-amine]"
0.09 µM,0.03 µM,0.15 µM,–,"Fc1c(NCC2(Cn3cncn3)COC2)ccc2[nH]c3ccccc3c12 [SS20308-0312-01, N-((3-((1H-1,2,4-triazol-1-yl)methyl)oxetan-3-yl)methyl)-4-fluoro-9H-carbazol-3-amine]"
5.01 µM,50.9 µM,13.1 µM,–,"CN(C)CCC(c1ccccc1)c1ccc2[nH]c3ccccc3c2c1 (stereo not drawn) [SS20308-0183-01, 3-(9H-carbazol-3-yl)-N,N-dimethyl-3-phenylpropan-1-amino]"
0.2 µM,0.09 µM,0.4 µM,–,"Fc1cc2[nH]c3ccccc3c2cc1NCC1(Cn2cncn2)COC1 [SS20308-0304-01, N-((3-((1H-1,2,4-triazol-1-yl)methyl)oxetan-3-yl)methyl)-2-fluoro-9H-carbazol-3-amine]"
